# In US20200360331A1, “COMPOSITIONS COMPRISING 15-HEPE AND/OR 15-HETrE AND METHODS OF TREATING OR PREVENTING CARDIOMETABOLIC DISEASE, METABOLIC SYNDROME, AND/OR RELATED DISEASES” (Afimmune Limited, priority 2019, published 2020):
# Assays:
# BDL-operated mice = experiment: BDL study: serum biochemistry (ALT, total bilirubin); format: in vivo, C57BL/6J mice; settings: for Serum ALT / Serum Total Bilirubin: BDL mice
# Procedure: BDL Surgery: On Day 0 of the study, BDL surgery was performed under pentobarbital (Kyoritsu Seiyaku, Japan) anesthesia. The mouse's hair was first shaved, the abdominal cavity cut open, and the common bile duct was ligated twice with 7-0 surgical silk. The mouse's peritoneum and the skin were closed with sutures, and the mice were transferred to a clean cage (e.g., resting cage) until recovered from anesthesia. Sham operated mice had their common bile duct exposed but not ligated.
# Sample Collection: For serum samples, non-fasting blood was collected in serum separate tubes without anticoagulant through direct cardiac puncture and centrifuged at 3,500×g for 4 minutes at 4° C. The supernatant was collected and stored at −80° C. for biochemistry (30 μL) and shipping (all the remaining). For liver samples, left lateral lobe was collected and cut into 6 pieces. Two pieces of left lateral lobe were fixed in Bouin's solution and then embedded in paraffin. Samples were stored at room temperature for histological analysis. The other 2 pieces of left lateral lobe were embedded in O.C.T. compound and quick frozen in liquid nitrogen. Samples were stored at −80° C. The remaining pieces of left lateral lobe was snap frozen in liquid nitrogen and stored at −80° C. for gene expression analyses. Right medial lobe, left medial lobe, right lobe and caudate lobe were snap frozen in liquid nitrogen and stored at −80° C. for shipping.
# NAFLD patients [1] = experiment: Phase IIa NAFLD study: lipidomics; format: in vivo, human; settings: 2 g
# Description: Exploratory analysis: The exploratory analysis included analysis of lipid and metabolic parameters including total cholesterol, triglycerides, very low-density lipoprotein cholesterol (VLDL-C), low density lipoprotein cholesterol (LDL-C), high density lipoprotein cholesterol (HDL-C), non-high-density lipoprotein cholesterol (non-HDL-C), remnant-like particle cholesterol (RLP-C), fasting glucose, insulin, free fatty acids and hemoglobin A1C (HbA1C). Additional exploratory analysis included high throughput lipidomics and proteomics. […] The study was planned to include 96 evaluable patients with 32 patients randomized per treatment group. […] Exploratory analysis: The exploratory analysis included analysis of lipid and metabolic parameters including total cholesterol, triglycerides, very low-density lipoprotein cholesterol (VLDL-C), low density lipoprotein cholesterol (LDL-C), high density lipoprotein cholesterol (HDL-C), non-high-density lipoprotein cholesterol (non-HDL-C), remnant-like particle cholesterol (RLP-C), fasting glucose, insulin, free fatty acids and hemoglobin A1C (HbA1C). Additional exploratory analysis included high throughput lipidomics and proteomics.
# NAFLD patients [2] = experiment: Phase IIa NAFLD study: hepatic fat by CAP; format: in vivo, human; settings: patients diagnosed with NAFLD
# Procedure: The study was planned to include 96 evaluable patients with 32 patients randomized per treatment group. […] Liver stiffness and CAP: Liver stiffness and CAP were assessed using transient elastography (e.g., FibroScan® 502 Touch model or equivalent). Patients were fasted and scanned at the same time of the day, if possible, for baseline (Week 0) and Visit 10 (Week 16). For this assessment the following conditions were met: patients were lying in dorsal decubitus position with the right arm in maximal abduction behind the head, in a similar position to that used for liver biopsy (LB); the tip of the transducer was placed on the skin between the ribs over the right lobe of the liver (the physician took the measurements with the probe placed in the intercostal space); during the FibroScan® examination the choice of M+ or XL+ probe was determined by the Automatic Probe Selection tool (APS) (If, the APS tool advises to use the “XL+ probe” or “switch” continuously between “M+ and XL+ probe”, only the XL+ probe was used); and the operator, assisted by an ultrasonic time motion image, located a portion of the liver which is free of large vascular structures (the depth of measurement was between 35-75 mm for the XL+ probe and 25-65 mm for the M+ probe and the explored volume will be 3 cm^3). […] The final stiffness and CAP values was recorded as median values of valid measurements.
# NAFLD patients [3] = experiment: Phase IIa NAFLD study: safety (adverse events); format: in vivo, human
# Description: (§1) The study was planned to include 96 evaluable patients with 32 patients randomized per treatment group.
# The intensity of an AE is an estimate of the relative severity of the event made by the Investigator based on his or her clinical experience. The following definitions were used to rate the severity of an AE: • Mild: The adverse event was transient and easily tolerated. • Moderate: The adverse event caused the patient discomfort and interrupted the patient's usual activities. • Severe: The adverse event caused considerable interference with the patient's usual activities and may have been incapacitating or life-threatening.
# Causality of the AE to experimental treatment was also established by taking into account the patient's history, most recent physical examination findings, and concomitant medications. The following definitions were used to determine causality of an AE: • Not related: temporal relationship of the onset of the AE, relative to the experimental treatment was not reasonable or another cause could explain the occurrence of the AE. • Related: temporal relationship of the onset of the AE, relative to the experimental treatment was reasonable, followed a known response pattern to the treatment, and an alternative cause was unlikely.
# NAFLD patients [4] = experiment: Phase IIa NAFLD study: alkaline phosphate (ALP); format: in vivo, human; settings: 2 g
# Procedure: as §1
# Clinical Laboratory Safety Tests: Safety tests were performed for hematology, serum biochemistry, coagulation, lipid profile, and urinalysis: Blood and urine samples were taken as per the Study Flow Chart in Table 19 for routine hematology, serum biochemistry, coagulation and urinalysis tests, along with a Lipid Profile. All samples were analyzed in the central laboratory. All subjects were fasted for a minimum of 8 hours prior to blood sampling. […]
# [5] = 50 mg/kg PO QD Day 0-13, Day 14
# [6] = 250 mg/kg PO QD Day 0-13, Day 14
# [7] = 500 mg/kg PO QD Day 0-13, Day 14
# [8] = BDL mice, 50, 250 and 500 mg/kg
compound,measurement,setting,value
"CC/C=C\CC(O)/C=C/C=C\C/C=C\C/C=C\CCCC(=O)O (stereo not drawn) [DS102, 15-hydroxy-eicosa-5Z,8Z,11Z,13E,17Z-pentaenoic acid]",Serum ALT,BDL-operated mice; [5],402 ± 112 U/L
same,Serum Total Bilirubin,BDL-operated mice; [5],26.8 ± 6.9 mg/dL
same,Serum ALT,BDL-operated mice; [6],351 ± 155 U/L
same,Serum Total Bilirubin,BDL-operated mice; [6],23.5 ± 9.8 mg/dL
same,Serum ALT,BDL-operated mice; [7],383 ± 147 U/L
same,Serum Total Bilirubin,BDL-operated mice; [7],26.2 ± 6.1 mg/dL
same,serum ALT level vs Vehicle group,BDL-operated mice; [8],no significant differences
same,serum total bilirubin level vs Vehicle group,BDL-operated mice; [8],no significant differences
same,levels of multiple glycerophospholipid groups,NAFLD patients [1],significantly increased
same,levels of multiple hepatotoxic diglycerides,NAFLD patients [1],significantly decreased
same,hepatic fat content as assessed by CAP,NAFLD patients [2],reduced
same,"Death, patients n",NAFLD patients [3]; 1 g DS102 (n = 32),0
same,"Patients with ≥1 AE related to study drug, %",NAFLD patients [3]; 1 g DS102 (n = 32),(6.3) %
same,"Patients with ≥1 AE, %",NAFLD patients [3]; 1 g DS102 (n = 32),(59.4) %
same,"Death, patients n",NAFLD patients [3]; 2 g DS102 (n = 30),0
same,"Patients with ≥1 AE related to study drug, %",NAFLD patients [3]; 2 g DS102 (n = 30),(10.0) %
same,"Patients with ≥1 AE, %",NAFLD patients [3]; 2 g DS102 (n = 30),(50.0) %
same,"Patients with ≥1 SAE, %",NAFLD patients [3]; 2 g DS102 (n = 30),(3.3) %
same,drug related serious adverse events (SAEs),"NAFLD patients [3]; NAFLD patients, 16 weeks",no drug related serious adverse events
same,safety and tolerability compared to placebo,"NAFLD patients [3]; NAFLD patients, 16 weeks",safe and well tolerated
same,alkaline phosphate (ALP),NAFLD patients [4],reduced
